Laboratory results as given in paper PMC2782546 (Chemical biology & drug design, 2009).
Like-named read-outs stand apart in the source and are kept apart here. The star is where a group is joined. Lys(Fam) = Lys(Fam): lysine whose ε-amino group carries Fam (fluorescein), added using fluorescein-5-isothiocyanate; Dnp = O=[N+]([O-])c1ccc(*)c([N+](=O)[O-])c1; Mca = COc1ccc2c(CC(=O)*)cc(=O)oc2c1

How the values were obtained:
ADAMTS-1 = ADAMTS-1 aggrecanase activity; cited from earlier work
MMP-9 [1] = target: T1, MMP-9 (Homo sapiens, UniProt P14780); details: cited from earlier work
T1 sequence (P14780 94-707, species assumed): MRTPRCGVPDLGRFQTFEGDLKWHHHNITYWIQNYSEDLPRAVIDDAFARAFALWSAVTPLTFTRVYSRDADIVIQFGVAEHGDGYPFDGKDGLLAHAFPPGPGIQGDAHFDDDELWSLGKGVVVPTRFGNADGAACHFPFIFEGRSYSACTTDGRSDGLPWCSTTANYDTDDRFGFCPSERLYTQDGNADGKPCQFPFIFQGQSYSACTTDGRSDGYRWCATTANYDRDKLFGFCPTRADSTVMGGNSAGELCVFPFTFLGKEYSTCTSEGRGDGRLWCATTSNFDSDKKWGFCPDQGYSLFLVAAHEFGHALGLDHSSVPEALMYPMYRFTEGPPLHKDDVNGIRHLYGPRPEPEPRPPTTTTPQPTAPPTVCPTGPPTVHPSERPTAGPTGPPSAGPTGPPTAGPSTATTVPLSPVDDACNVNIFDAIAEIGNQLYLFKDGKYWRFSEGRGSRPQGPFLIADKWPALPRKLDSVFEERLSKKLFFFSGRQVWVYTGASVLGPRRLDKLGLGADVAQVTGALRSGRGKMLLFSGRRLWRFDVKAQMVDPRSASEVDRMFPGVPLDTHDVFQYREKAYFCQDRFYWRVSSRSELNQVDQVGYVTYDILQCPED

MT1-MMP = details: cited from earlier work
MMP-1 [2] = details: MMP-1, inhibitor concentration 50 μM; cited from earlier work
MMP-2 [3] = target: T2, MMP-2 (Homo sapiens, UniProt P08253); details: cited from earlier work
T2 sequence (P08253 110-660): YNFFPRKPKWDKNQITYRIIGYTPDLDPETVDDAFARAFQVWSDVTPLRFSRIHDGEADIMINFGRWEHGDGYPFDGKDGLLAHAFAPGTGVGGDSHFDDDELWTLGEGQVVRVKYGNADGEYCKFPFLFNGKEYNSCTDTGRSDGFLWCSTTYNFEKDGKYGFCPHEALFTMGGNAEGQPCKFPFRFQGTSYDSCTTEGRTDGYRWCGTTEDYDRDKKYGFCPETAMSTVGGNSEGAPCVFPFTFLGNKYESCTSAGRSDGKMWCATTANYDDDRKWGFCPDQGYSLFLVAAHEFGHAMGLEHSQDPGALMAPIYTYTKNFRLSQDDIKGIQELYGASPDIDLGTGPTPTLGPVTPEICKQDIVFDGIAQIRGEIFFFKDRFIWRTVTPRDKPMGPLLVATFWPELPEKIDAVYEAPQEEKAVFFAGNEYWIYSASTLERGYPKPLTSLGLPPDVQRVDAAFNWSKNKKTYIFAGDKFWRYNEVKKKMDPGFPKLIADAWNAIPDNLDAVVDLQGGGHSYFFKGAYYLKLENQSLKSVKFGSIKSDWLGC

ADAM-10 = details: ADAM-10, inhibitor concentration 50 μM; cited from earlier work
MMP-13 = details: MMP-13, inhibitor concentration 50 μM; cited from earlier work
ADAMTS-4 [4] = details: ADAMTS-4 aggrecanase activity; cited from earlier work
MMP-7 = details: cited from earlier work
MMP-2 [5] = target: T2, MMP-2; assay: MMP-2 inhibition assay with FRET substrates; assay type: biochemical
ADAMTS-5 [6] = target: T3, ADAMTS-5 (Homo sapiens, UniProt Q9UNA0); assay: ADAMTS-5 inhibition, RP-HPLC analysis of cleavage products; assay type: biochemical; details: ADAMTS-5, data not shown
T3 sequence (Q9UNA0 262-731 limits assumed): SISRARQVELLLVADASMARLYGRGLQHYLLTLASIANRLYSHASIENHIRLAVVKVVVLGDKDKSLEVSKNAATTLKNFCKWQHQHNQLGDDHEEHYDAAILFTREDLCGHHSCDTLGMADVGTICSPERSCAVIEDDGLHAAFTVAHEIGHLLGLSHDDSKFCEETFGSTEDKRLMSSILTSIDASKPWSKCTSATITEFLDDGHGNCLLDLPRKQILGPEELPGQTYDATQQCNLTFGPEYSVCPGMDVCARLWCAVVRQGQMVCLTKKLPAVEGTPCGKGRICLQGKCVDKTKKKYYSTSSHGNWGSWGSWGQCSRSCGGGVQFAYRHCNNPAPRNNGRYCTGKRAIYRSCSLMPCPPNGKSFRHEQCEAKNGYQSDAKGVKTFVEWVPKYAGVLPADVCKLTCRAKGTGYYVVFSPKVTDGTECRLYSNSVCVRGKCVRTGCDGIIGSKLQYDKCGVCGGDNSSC

ADAMTS-4 (aggrecanase-1) [7] = target: T4, ADAMTS-4 (aggrecanase-1) (Homo sapiens, UniProt O75173); assay: ADAMTS-4 inhibition, RP-HPLC analysis of cleavage products
T4 sequence (O75173 213-685 limits assumed): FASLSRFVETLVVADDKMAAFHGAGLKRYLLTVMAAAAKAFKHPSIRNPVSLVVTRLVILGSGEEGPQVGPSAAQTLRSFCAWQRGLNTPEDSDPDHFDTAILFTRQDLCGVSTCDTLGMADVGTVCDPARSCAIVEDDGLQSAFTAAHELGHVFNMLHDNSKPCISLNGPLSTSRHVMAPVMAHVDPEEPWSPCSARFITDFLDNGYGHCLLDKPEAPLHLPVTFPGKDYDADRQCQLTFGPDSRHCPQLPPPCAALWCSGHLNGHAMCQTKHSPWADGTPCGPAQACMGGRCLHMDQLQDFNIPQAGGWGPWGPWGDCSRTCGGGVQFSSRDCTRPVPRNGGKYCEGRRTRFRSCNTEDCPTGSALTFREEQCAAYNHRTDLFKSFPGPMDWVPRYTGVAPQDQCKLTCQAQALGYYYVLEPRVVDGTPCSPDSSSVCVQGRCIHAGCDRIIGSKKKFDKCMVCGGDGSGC

ADAMTS-4 (aggrecanase-1) [8] = target: T4, ADAMTS-4 (aggrecanase-1); assay: ADAMTS-4 inhibition assay, FRET substrate hydrolysis; assay type: biochemical
ADAMTS-5 [9] = target: T3, ADAMTS-5; assay: ADAMTS-5 inhibition assay, FRET substrate hydrolysis; assay type: biochemical
MMP-12 [10] = target: T5, MMP-12 (Homo sapiens, UniProt P39900); assay: MMP-12 inhibition assay with FRET substrates; assay type: biochemical; details: MMP-12, substrate fMMPSshort
T5 sequence (P39900 106-470, species assumed): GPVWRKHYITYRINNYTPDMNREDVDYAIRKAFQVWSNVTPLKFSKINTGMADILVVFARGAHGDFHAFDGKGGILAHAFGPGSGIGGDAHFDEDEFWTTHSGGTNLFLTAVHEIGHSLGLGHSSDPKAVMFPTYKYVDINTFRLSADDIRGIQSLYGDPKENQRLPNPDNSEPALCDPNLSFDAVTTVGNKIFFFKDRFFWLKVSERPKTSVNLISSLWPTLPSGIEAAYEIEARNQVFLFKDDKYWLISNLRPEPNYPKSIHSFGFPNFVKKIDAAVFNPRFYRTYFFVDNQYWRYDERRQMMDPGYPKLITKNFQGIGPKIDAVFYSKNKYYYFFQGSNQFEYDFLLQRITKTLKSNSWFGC

MMP-8 [11] = target: T6, MMP-8 (Homo sapiens, UniProt P22894); assay: MMP-8 inhibition assay with FRET substrates; assay type: biochemical
T6 sequence (P22894 101-467, species assumed): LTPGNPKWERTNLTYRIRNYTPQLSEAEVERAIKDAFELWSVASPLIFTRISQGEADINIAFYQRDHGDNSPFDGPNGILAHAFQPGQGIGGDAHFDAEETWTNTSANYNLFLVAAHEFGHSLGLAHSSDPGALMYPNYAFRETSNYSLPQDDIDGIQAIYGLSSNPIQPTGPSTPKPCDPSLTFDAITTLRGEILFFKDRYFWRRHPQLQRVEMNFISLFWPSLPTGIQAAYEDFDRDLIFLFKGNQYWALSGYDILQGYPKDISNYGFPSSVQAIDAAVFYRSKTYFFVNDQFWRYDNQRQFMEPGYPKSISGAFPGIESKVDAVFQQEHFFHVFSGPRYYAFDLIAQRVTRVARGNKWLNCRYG

MMP-9 [12] = target: T1, MMP-9; assay: MMP-9 inhibition assay with FRET substrates; assay type: biochemical; details: MMP-9, substrate fMMPSlong
MMP-2 [13] = target: T2, MMP-2; details: cited from earlier work; remark: listed apart in the source
MMP-1 [14] = details: cited from earlier work
MMP-9 [15] = target: T1, MMP-9; details: cited from earlier work; remark: listed apart in the source
MMP-8 [16] = target: T6, MMP-8; details: read-out: KM value for MMP hydrolysis; cited from earlier work
MMP-2 [17] = target: T2, MMP-2; details: read-out: KM value for MMP hydrolysis; cited from earlier work
ADAMTS-4 [18] = details: read-out: KM value for ADAMTS-4 hydrolysis; substrate kinetics; cited from earlier work
MMP-9 [19] = target: T1, MMP-9; details: read-out: KM value for MMP hydrolysis; cited from earlier work
MMP-12 [20] = target: T5, MMP-12; details: read-out: KM value for MMP hydrolysis; cited from earlier work

## O=C(O[C@@H]1Cc2c(O)cc(O)cc2O[C@@H]1c1cc(O)c(O)c(O)c1)c1cc(O)c(O)c(O)c1 [Compound 1, (−)-epigallocatechin gallate]
ADAMTS-1
  IC50: 0.2 to 0.25 µM
MMP-9 [1]; MMP-9
  IC50: 0.8 to 13 µM
MT1-MMP
  IC50: 0.019 µM
MMP-1 [2]
  inhibition: 14–30%
MMP-2 [3]; MMP-2
  IC50: 6 to 8 µM
ADAM-10
  inhibition: 14–30%
MMP-13
  inhibition: 14–30%
ADAMTS-4 [4]
  IC50: 0.1 to 0.15 µM
MMP-7
  IC50: 1.6 µM

## O=C(O[C@@H]1Cc2c(O)cc(O)cc2O[C@@H]1c1ccc(O)c(O)c1)c1cc(O)c(O)c(O)c1 [Compound 2, (−)-epicatechin gallate]
ADAMTS-1
  IC50: 0.2 to 0.25 µM
MMP-1 [2]
  inhibition: 14–30%
ADAM-10
  inhibition: 14–30%
MMP-13
  inhibition: 14–30%
ADAMTS-4 [4]
  IC50: 0.1 to 0.15 µM

## Oc1cc(O)cc(/C=C/c2ccc(O)c(O)c2)c1 [Compound 3, (E)-4-[2-(3,5-dihydroxyphenyl)ethenyl]1,2-benzediol]
MMP-2 [5]; MMP-2, substrate fMMPSlong
  Ki: 10 ± 0.89 µM
MMP-2 [5]; MMP-2, substrate fMMPSshort
  Ki: 12.2 ± 1.82 µM
ADAMTS-5 [6]
  inhibition of substrate hydrolysis by RP-HPLC analysis: inhibited

## Oc1ccc(/C=C/c2cc(O)cc(O)c2)cc1 [Compound 4, 5-[(1E)-2-(4-hydroxyphenyl)ethenyl]-1,3-benzenediol]
ADAMTS-4 (aggrecanase-1) [7]
  IC50: > 100 µM
ADAMTS-4 (aggrecanase-1) [8]
  IC50: 50 µM
MMP-9 [1]; prior study
  inhibition of MMP-9: not an inhibitor
MMP-2 [3]; prior study
  inhibition of MMP-2: not an inhibitor

## C(=C\c1ccccc1)/c1ccccc1 [Compound 5, trans-1,2-diphenylethylene]
ADAMTS-4 (aggrecanase-1) [7]
  IC50: > 100 µM
ADAMTS-4 (aggrecanase-1) [8]
  IC50: > 100 µM

## C(=C/c1ccccc1)/c1ccccc1 [Compound 6, cis-1,2-diphenylethylene]
ADAMTS-4 (aggrecanase-1) [7]
  IC50: > 100 µM
ADAMTS-4 (aggrecanase-1) [8]
  IC50: ~100 µM

## COc1ccc(/C=C/c2cc(O)cc(OC3OC(CO)C(O)C(O)C3O)c2)cc1 (stereo not shown) [Compound 7, 2-[3-hydroxy-5-[(E)-2-(4-methoxyphenyl)ethenyl]phenoxy]-6-(hydroxymethyl)oxane-3,4,5-triol]
ADAMTS-4 (aggrecanase-1) [7]
  IC50: > 100 µM
ADAMTS-4 (aggrecanase-1) [8]
  IC50: 20 µM

## COc1ccc(C=Cc2cc(O)cc(OC3OC(CO)C(O)C(O)C3O)c2)cc1O (stereo not shown) [Compound 8, 2-[3-hydroxy-5-[2-(3-hydroxy-4-methoxyphenyl)ethenyl]phenoxy]-6-(hydroxymethyl)oxane-3,4,5-triol]
ADAMTS-4 (aggrecanase-1) [7]
  IC50: > 100 µM
ADAMTS-4 (aggrecanase-1) [8]
  IC50: 50 µM

## Oc1ccccc1O [Compound 9, 1,2-dihydroxybenzene]
ADAMTS-4 (aggrecanase-1) [7]
  IC50: > 100 µM
ADAMTS-4 (aggrecanase-1) [8]
  IC50: 20 µM

## Oc1cccc(O)c1O [Compound 10, 1,2,3-trihydroxybenzene]
ADAMTS-5 [9]; ADAMTS-5, data not shown
  inhibition of substrate hydrolysis by fluorescence analysis: inhibited
ADAMTS-5 [9]; Ki, ADAMTS-5, substrate fTSSshort, apparent Ki
  Ki: 36.9 ± 8.82 µM
MMP-2 [5]; MMP-2, substrate fMMPSshort
  Ki: 11.3 ± 0.52 µM
MMP-12 [10]
  Ki: 34.4 ± 3.99 µM
MMP-8 [11]
  Ki: 10.3 ± 0.94 µM
MMP-9 [12]
  Ki: 8.29 ± 0.63 µM
ADAMTS-5 [6]
  inhibition of substrate hydrolysis by RP-HPLC analysis: inhibited

## O=c1cc(-c2ccc(O)cc2)oc2cc(O)cc(O)c12 [apigenin]
MMP-2 [13]
  EC50: 7.5 µM
MMP-1 [14]
  IC50: > 100 µM

## O=c1c(O)c(-c2ccc(O)cc2)oc2cc(O)cc(O)c12 [kaempferol]
MMP-1 [14]
  IC50: 43.7 µM

## O=c1cc(-c2ccc(O)c(O)c2)oc2cc(O[C@@H]3O[C@H](CO)[C@@H](O)[C@H](O)[C@H]3O)cc(O)c12 [luteolin-7-O-glucoside]
MMP-9 [15]; MMP-9
  EC50: 4.6 µM

## O=c1cc(-c2ccc(O)c(O)c2)oc2cc(O)cc(O)c12 [luteolin]
MMP-9 [15]; MMP-9, noncompetitive mechanism
  Ki: 5.4 µM

## O=c1c(O)c(-c2ccc(O)c(O)c2)oc2cc(O)cc(O)c12 [quercetin]
MMP-1 [14]
  IC50: 39.6 µM

## (Gly-Pro-Hyp)5-Gly-Pro-Lys(Mca)-Gly-Pro-Gln-Gly~Leu-Arg-Gly-Gln-Lys(Dnp)-Gly-Val-Arg-(Gly-Pro-Hyp)5-NH2 [fMMPSlong]
MMP-8 [16]
  Km: 7.6 µM
MMP-2 [17]
  Km: 17.2 µM

## Lys(Fam)-Asp-Val-Gln-Glu-Phe-Arg-Gly-Val-Thr-Ala-Val-Ile-Arg-Lys(Tamra)-Lys-Gly-Lys-NH2 ({Lys(Fam)}-DVQEFRGVTAVIRK(Tamra)KGK-NH2) [fTSS1]
ADAMTS-4 [18]
  Km: ~35 µM

## Mca-Lys-Pro-Leu-Gly-Leu-Lys(Dnp)-Ala-Arg-NH2 (Mca-KPLGLK(Dnp)AR-NH2; SMILES COc1ccc2c(CC(=O)N[C@@H](CCCCN)C(=O)N3CCC[C@H]3C(=O)N[C@@H](CC(C)C)C(=O)NCC(=O)N[C@@H](CC(C)C)C(=O)N[C@@H](CCCCNc3ccc([N+](=O)[O-])cc3[N+](=O)[O-])C(=O)N[C@@H](C)C(=O)N[C@@H](CCCNC(=N)N)C(N)=O)cc(=O)oc2c1) [fMMPSshort]
MMP-9 [19]
  Km: 27.7 µM
MMP-12 [20]
  Km: 130 µM
